Results on 14 compounds are retold here after US12240844B2 (Voronoi, Inc., priority 2019, dated 2025).

SMILES strings stand for the structures.

One test deals with T1, human GST-CLK1 (129-end) (Homo sapiens, UniProt P49759).
T1 construct: purified human GST-CLK1 (129-end, Signalchem) enzyme; GST; purchased Signalchem
The test can be described thus: GST-CLK1 enzyme inhibition, ADP-Glo kinase assay. The class given is biochemical. The note with it: ATP 10 uM. In a few lines:
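ADP formation was read by ADP-Glo luminescence after 1 h at 25° C with 3 ng human GST-CLK1 (129-end), substrate and 10 uM ATP in Tris pH 7.4 buffer containing MgCl2, BSA and DTT. Inhibition relative to untreated solvent control gave IC50 (nM), run in triplicate.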
(In ADP-Glo the light output rises with the ADP produced.)

The target of a further test is LRRK2 (Homo sapiens, UniProt Q5S007). The test can be described thus: LRRK2 enzyme inhibition, ADP-Glo kinase assay. The class given is biochemical. Set-up: purchased Invitrogen PR8604B. The procedure, abridged:
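ADP-Glo luminescence read after 2 h at 25° C, 10 μM ATP, 25 ng purified human LRRK2 and […] substrate in Tris-HCl pH7.4 buffer with MgCl2, BSA, DTT. Twelve final concentrations, 50 μM down to 0.000001024 μM; IC50 (nM) from inhibition relative to untreated solvent control.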

In test [1] the target is T2, human GST-DYRK1A (full length) (Homo sapiens, UniProt Q13627).
T2 construct: purified human GST-DYRK1A (full length, Thermo scientifics) enzyme; GST; purchased Thermo scientifics
The test can be described thus: GST-DYRK1A enzyme inhibition, ADP-Glo kinase assay. Type of test: biochemical. The note with it: read-out: DYRK1 IC50. In a few lines: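 ADP-Glo luminescence quantified kinase activity after a 1 h, 25° C reaction of 10 ng full-length GST-tagged human DYRK1A, substrate and 10 uM ATP in Tris-HCl buffer pH 7.4 with MgCl2, BSA and DTT. Triplicate IC50 values (nM) calculated relative to untreated solvent control.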

In a further test the test system is MDA-MB-231 cell line. The test can be described thus: MDA-MB-231 cancer cell proliferation inhibition (Cell Titer-Glo). The class given is cell-based. The settings on record: Homo sapiens, MDA-MB-231 triple-negative breast cancer cell line, 72 hours. On the procedure: (§1) In order to evaluate the cancer cell proliferation inhibitory activity of the compounds of the present invention, the following experiments were performed.
(§2) To evaluate the cancer cell proliferation inhibitory effect, the cell growth rate analysis was performed while culturing MDA-MB-231 cell line (Korean Cell Line Bank #30026) and MDA-MB-468 cell line as the triple-negative breast cancer cell line, and SHP-77 (ATCC #CRL-2195) as the small cell lung cancer cell line in DMEM (HyClone #SH30243) and RPMI medium (HyClone #SH3027.01), respectively. More specifically, the cell lines were each plated at 2000 cells/100 μl in each well of a 96-well flat-bottom plate (coming #3903), and then the example compounds having eleven concentrations which were diluted by ⅓ so that the final concentrations were 10.000000, 3.333333, 1.111111, 0.370370, 0.123457, 0.041152, 0.013717, 0.004572, 0.001524, 0.000508 and 0.000169 μM were treated. After 72 hours, 100 μl of Cell Titer-Glo (Promega G7573) was treated, incubated at RT for 10 minutes, and then luminescence was measured using a microplate reader. The measured luminescence degree was calculated as GI50 using Prism (version 8.2 GraphPad) software.
(§3) In the table below, the following designations were used for the evaluation of proliferation inhibitory activity.
A general note: In ATP-based viability assays light output follows the ATP content of the culture.

A further test concerns the target LRRK2 (G2019S) (Homo sapiens, UniProt Q5S007, G2019S). The test can be described thus: LRRK2 G2019S enzyme inhibition, ADP-Glo kinase assay. The class given is biochemical. Set-up: purchased SignalChem L10-12GG. In a few lines:
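Activity read as ADP-Glo luminescence, normalized to untreated solvent control, with IC50 (nM) fitted over 12 final compound levels (top 50 μM). Reaction: 2 h, 25° C, human LRRK2 G2019S 16 ng, ATP 25 μM, substrate 0.2 μg, in Tris-HCl pH 7.4 with MgCl2, BSA and DTT.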

Another test deals with SHP-77. Briefly: SHP-77 cancer cell proliferation inhibition (Cell Titer-Glo). The class given is cell-based. The settings on record: Homo sapiens, SHP77, SHP-77 small cell lung cancer cell line, 72 hours. On the procedure: as §1, §2, §3

T1 sequence (P49759 129-484 limits assumed): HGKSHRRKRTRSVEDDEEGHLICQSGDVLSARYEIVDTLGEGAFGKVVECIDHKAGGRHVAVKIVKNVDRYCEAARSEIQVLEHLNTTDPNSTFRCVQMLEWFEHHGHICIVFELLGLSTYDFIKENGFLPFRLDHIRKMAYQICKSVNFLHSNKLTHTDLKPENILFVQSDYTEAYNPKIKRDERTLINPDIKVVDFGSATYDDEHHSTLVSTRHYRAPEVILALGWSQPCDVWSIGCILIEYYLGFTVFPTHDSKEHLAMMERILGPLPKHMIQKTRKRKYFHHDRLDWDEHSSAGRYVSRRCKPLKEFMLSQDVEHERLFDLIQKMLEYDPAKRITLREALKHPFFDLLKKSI
Sequence of LRRK2 (G2019S) (Q5S007 970-2527 G2019S limits assumed): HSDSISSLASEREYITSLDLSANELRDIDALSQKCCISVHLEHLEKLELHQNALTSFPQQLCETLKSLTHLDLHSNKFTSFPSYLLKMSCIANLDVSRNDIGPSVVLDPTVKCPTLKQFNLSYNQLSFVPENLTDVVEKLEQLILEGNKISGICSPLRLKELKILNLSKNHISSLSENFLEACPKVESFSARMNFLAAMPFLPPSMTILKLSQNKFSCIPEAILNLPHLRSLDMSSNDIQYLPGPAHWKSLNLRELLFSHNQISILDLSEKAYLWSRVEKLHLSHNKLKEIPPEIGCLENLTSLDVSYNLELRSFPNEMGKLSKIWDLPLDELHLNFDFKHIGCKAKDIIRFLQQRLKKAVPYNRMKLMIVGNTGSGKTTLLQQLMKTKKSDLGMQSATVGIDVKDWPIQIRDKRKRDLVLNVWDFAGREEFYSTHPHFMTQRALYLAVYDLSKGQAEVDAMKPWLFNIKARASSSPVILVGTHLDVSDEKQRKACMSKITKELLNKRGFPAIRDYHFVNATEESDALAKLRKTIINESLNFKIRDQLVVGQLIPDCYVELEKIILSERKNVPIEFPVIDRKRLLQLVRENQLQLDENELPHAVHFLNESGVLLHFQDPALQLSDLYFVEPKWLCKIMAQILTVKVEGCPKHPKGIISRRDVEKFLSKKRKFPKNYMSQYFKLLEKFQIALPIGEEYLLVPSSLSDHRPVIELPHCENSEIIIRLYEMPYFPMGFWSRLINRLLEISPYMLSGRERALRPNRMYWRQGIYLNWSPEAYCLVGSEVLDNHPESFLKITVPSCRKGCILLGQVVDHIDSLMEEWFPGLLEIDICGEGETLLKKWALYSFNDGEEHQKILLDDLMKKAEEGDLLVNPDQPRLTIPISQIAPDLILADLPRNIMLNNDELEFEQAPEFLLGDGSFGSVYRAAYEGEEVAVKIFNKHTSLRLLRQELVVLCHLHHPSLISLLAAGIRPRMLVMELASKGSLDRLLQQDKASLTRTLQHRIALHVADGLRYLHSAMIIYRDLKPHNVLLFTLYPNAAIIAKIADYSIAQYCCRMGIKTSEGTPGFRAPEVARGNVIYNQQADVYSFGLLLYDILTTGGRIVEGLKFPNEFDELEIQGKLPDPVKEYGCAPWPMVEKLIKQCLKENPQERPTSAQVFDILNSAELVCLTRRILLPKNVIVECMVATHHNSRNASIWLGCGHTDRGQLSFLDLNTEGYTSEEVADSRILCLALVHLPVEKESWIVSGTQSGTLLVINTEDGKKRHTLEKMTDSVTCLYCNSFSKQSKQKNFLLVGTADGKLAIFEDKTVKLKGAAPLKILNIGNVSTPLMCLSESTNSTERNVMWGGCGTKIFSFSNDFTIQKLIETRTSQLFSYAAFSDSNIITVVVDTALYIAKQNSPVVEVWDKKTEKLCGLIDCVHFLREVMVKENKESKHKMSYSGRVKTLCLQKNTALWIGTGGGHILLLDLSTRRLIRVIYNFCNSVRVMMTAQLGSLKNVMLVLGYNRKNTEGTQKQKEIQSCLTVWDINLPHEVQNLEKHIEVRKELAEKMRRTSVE
Sequence of LRRK2 (Q5S007 970-2527 limits assumed): as the sequence (Q5S007 970-2527 G2019S limits assumed) above, with S1050G counted along it

`CNc1cc(Nc2ccc(S(=O)(=O)N3CCOCC3)c3c2OCCO3)nc2[nH]cc(C(F)(F)F)c12` [Example 98, N^4-methyl-N^6-(8-(morpholonosulfonyl)-2,3-dihydrobenzo[b] [1,4]dioxin-5-yl)-3-(trifluoromethyl)-1H-pyrrolo[2,3-b]pyridine-4,6-diamine]: the IC50 (in general, the concentration at which inhibition is half-maximal) at human GST-CLK1 (129-end) was 301 to 1000 nM; on LRRK2, 101 to 300 nM; in test [1], 101 to 300 nM; against LRRK2 (G2019S), under 100 nM. Besides, the GI50 (in general, the concentration at which growth is held to half of that of the control) is 101 to 300 nM in the test with MDA-MB-231 cell line and 301 to 1000 nM in the test with SHP-77.

`CCNc1cc(Nc2ccc(S(=O)(=O)N3CCOCC3)c3c2OCCO3)nc2[nH]cc(C(F)(F)F)c12` [Example 99, N^4-ethyl-N^6-(8-(morpholonosulfonyl)-2,3-dihydrobenzo[b] [1,4]dioxin-5-yl)-3-(trifluoromethyl)-1H-pyrrolo[2,3-b]pyridine-4,6-diamine]: the IC50 (against human GST-CLK1 (129-end); against LRRK2; in test [1]; against LRRK2 (G2019S)) was 301 to 1000 nM each time. Besides, the GI50 with MDA-MB-231 cell line and with SHP-77 was 301 to 1000 nM each time.

For `O=S(=O)(c1ccc(Nc2cc(C3CC3)c3c(C(F)(F)F)c[nH]c3n2)c2c1OCCO2)N1CCOCC1` [Example 100, 4-cyclopropyl-N-(8-(morpholinosulfonyl)-2,3-dihydrobenzo[b] [1,4]dioxin-5-yl)-3-(trifluoromethyl)-1H-pyrrolo[2,3-b]pyridine-6-amine], the IC50 against human GST-CLK1 (129-end) was 301 to 1000 nM; at LRRK2, 301 to 1000 nM; in test [1], under 100 nM; against LRRK2 (G2019S) it was 301 to 1000 nM. The concentration for 50% growth inhibition (GI50) in the test on MDA-MB-231 cell line and in the test on SHP-77 was 301 to 1000 nM each time.

Regarding `CCNc1cc(Nc2ccc(S(=O)(=O)N3CCC(N4CCOCC4)CC3)c3c2OCC3)nc2[nH]cc(C(F)(F)F)c12` [Example 104, N^4-ethyl-N^6-(4-((4-morpholinopiperidin-1-yl)sulfonyl)-2,3-dihydrobenzofuran-7-yl)-3-(trifluoromethyl)-1H-pyrrolo[2,3-b]pyridine-4,6-diamine], the IC50 at human GST-CLK1 (129-end) is 301 to 1000 nM; on LRRK2, under 100 nM; in test [1], 301 to 1000 nM. Further, the concentration for 50% growth inhibition (GI50) with MDA-MB-231 cell line lay within 301 to 1000 nM; with SHP-77, 101 to 300 nM.

For the compound `COc1cc(S(=O)(=O)N2CCOCC2)ccc1Nc1cc(NC2CC2)c2c(C#N)c[nH]c2n1` [Example 127, 4-(cyclopropylamino)-6-((2-methoxy-4-(morpholinosulfonyl)phenyl)amino)-1H-pyrrolo[2,3-b]pyridine-3-carbonitrile], the 50% inhibitory concentration (IC50) at human GST-CLK1 (129-end) is 301 to 1000 nM; at LRRK2, under 100 nM; in test [1], 301 to 1000 nM; against LRRK2 (G2019S), 101 to 300 nM. The GI50 in the test on MDA-MB-231 cell line was 51 to 100 nM; with SHP-77 it was under 50 nM.

In the case of `COc1cc(S(=O)(=O)N2CCOCC2)ccc1Nc1cc(NC2CCC2)c2c(C#N)c[nH]c2n1` [Example 128, 4-(cyclobutylamino)-6-((2-methoxy-4-(morpholinosulfonyl)phenyl)amino)-1H-pyrrolo[2,3-b]pyridine-3-carbonitrile], the IC50 against human GST-CLK1 (129-end) is 301 to 1000 nM; against LRRK2 it was under 100 nM; in test [1], 301 to 1000 nM; against LRRK2 (G2019S) it was 301 to 1000 nM. Moreover, the GI50 is 51 to 100 nM with MDA-MB-231 cell line and under 50 nM in the test on SHP-77.

As to `COCCNc1cc(Nc2ccc(S(=O)(=O)N3CCOCC3)cc2OC)nc2[nH]cc(C#N)c12` [Example 129, 6-((2-methoxy-4-(morpholinosulfonyl)phenyl)amino)-4-((2-methoxyethyl)amino)-1H-pyrrolo[2,3-b]pyridine-3-carbonitrile], the IC50 on human GST-CLK1 (129-end) is 301 to 1000 nM; at LRRK2, under 100 nM; in test [1] it was 301 to 1000 nM; against LRRK2 (G2019S), under 100 nM. The 50% growth inhibitory concentration (GI50) in the test with MDA-MB-231 cell line is 101 to 300 nM; with SHP-77, under 50 nM.

For the compound `COc1cc(S(=O)(=O)N2CCOCC2)ccc1Nc1cc(NCCS(C)(=O)=O)c2c(C#N)c[nH]c2n1` [Example 130, 6-((2-methoxy-4-(morpholinosulfonyl)phenyl)amino)-4-((2-(methylsulfonyl)ethyl)amino)-1H-pyrrolo[2,3-b]pyridine-3-carbonitrile], the IC50 at human GST-CLK1 (129-end) is 301 to 1000 nM; against LRRK2, under 100 nM; in test [1], 101 to 300 nM; against LRRK2 (G2019S) it was under 100 nM. For the same compound, the 50% growth inhibitory concentration (GI50) with MDA-MB-231 cell line and in the test on SHP-77 was 301 to 1000 nM each time.

Turning to `CNc1cc(Nc2ccc(S(=O)(=O)N3CCOCC3)cc2OC)nc2[nH]cc(C#N)c12` [Example 131, 6-((2-methoxy-4-(morpholinosulfonyl)phenyl)amino)-4-(methylamino)-1H-pyrrolo[2,3-b]pyridine-3-carbonitrile], the half-maximal inhibitory concentration (IC50) was 301 to 1000 nM against human GST-CLK1 (129-end), under 100 nM on LRRK2, 301 to 1000 nM in test [1] and under 100 nM at LRRK2 (G2019S). Also, the concentration for 50% growth inhibition (GI50) in the test on MDA-MB-231 cell line is 51 to 100 nM; in the test with SHP-77, under 50 nM.

On to `COc1cc(S(=O)(=O)N2CCC(N3CCOCC3)CC2)ccc1Nc1cc(NCCS(C)(=O)=O)c2c(C#N)c[nH]c2n1` [Example 141, 6-((2-methoxy-4-((4-morpholinopiperidin-1-yl)sulfonyl)phenyl)amino)-4-((2-(methylsulfonyl)ethyl)amino)-1H-pyrrolo[2,3-b]pyridine-3-carbonitrile], for which the IC50 is 301 to 1000 nM at human GST-CLK1 (129-end), under 100 nM on LRRK2 and under 100 nM in test [1]. Moreover, the 50% growth inhibitory concentration (GI50) in the test on MDA-MB-231 cell line lay in the range of 101 to 300 nM; in the test with SHP-77, 51 to 100 nM.

In the case of `COC[C@@H](C)Nc1cc(Nc2ccc(S(=O)(=O)N3CCC(N4CCOCC4)CC3)cc2OC)nc2[nH]cc(C(F)(F)F)c12` [Example 196, (R)-N^6-(2-methoxy-4-((4-morpholinopiperidin-1-yl)sulfonyl)phenyl)-N^4-(1-methoxypropan-2-yl)-3-(trifluoromethyl)-1H-pyrrolo[2,3-b]pyridine-4,6-diamine], the IC50 against human GST-CLK1 (129-end) was 301 to 1000 nM; against LRRK2, under 100 nM; in test [1], 301 to 1000 nM. The values for the GI50 in the test with MDA-MB-231 cell line and in the test with SHP-77 were 301 to 1000 nM and 101 to 300 nM, respectively.

Regarding `COc1cc(S(=O)(=O)N2CCC(N3CCOCC3)CC2)ccc1Nc1cc(NC2CCC2)c2c(C(F)(F)F)c[nH]c2n1` [Example 202, N^4-cyclobutyl-N^6-(2-methoxy-4-((4-morpholinopiperidin-1-yl)sulfonyl)phenyl)-3-(trifluoromethyl)-1H-pyrrolo[2,3-b]pyridine-4,6-diamine], the concentration for half-maximal inhibition (IC50) (against human GST-CLK1 (129-end); on LRRK2; in test [1]) was 301 to 1000 nM in each case. For the same compound, the 50% growth inhibitory concentration (GI50) with MDA-MB-231 cell line and in the test with SHP-77 was 301 to 1000 nM in each case.

Turning to `COc1cc(S(=O)(=O)N2CCOCC2)ccc1Nc1cc(NC2CCC2)c2c(C(F)(F)F)c[nH]c2n1` [Example 203, N^4-cyclobutyl-N^6-(2-methoxy-4-(morpholinosulfonyl)phenyl)-3-(trifluoromethyl)-1H-pyrrolo[2,3-b]pyridine-4,6-diamine], the IC50 (on human GST-CLK1 (129-end); on LRRK2; in test [1]) was 301 to 1000 nM throughout. Also, the 50% growth inhibitory concentration (GI50) in the test on MDA-MB-231 cell line and in the test with SHP-77 was 301 to 1000 nM each time.

In the case of `CCOc1cc(Nc2ccc(S(=O)(=O)N3CCC(N4CCOCC4)CC3)cc2OC)nc2[nH]cc(C(F)(F)F)c12` [Example 232, 4-ethoxy-N-(2-methoxy-4-((4-morpholinopiperidin-1-yl)sulfonyl)phenyl)-3-(trifluoromethyl)-1H-pyrrolo[2,3-b]pyridin-6-amine], the IC50 at human GST-CLK1 (129-end) was 301 to 1000 nM; at LRRK2, 101 to 300 nM; in test [1], 101 to 300 nM. Moreover, the GI50 in the test with MDA-MB-231 cell line and in the test on SHP-77 was 301 to 1000 nM throughout.
